In patent publication US11965039B2, “Compstatin analogues and their medical uses” (priority 2018, dated 2024):
Where two headings read alike, the source gives them in different places. Starred links: 1 amine or outer side, 2 acyl side, 3 side chain; linkers in the order of their positions; H or OH if unused. Positions of bridges follow the written chain, without caps; N, C: chain ends. Non-standard residues stand in square brackets, D forms with d. Residues, ends and D or L forms follow the SMILES beside them. Groups on a side chain read outwards from the residue. *: point of attachment. Trp(1-Me) = Cn1cc(C[C@H](N)C(=O)O)c2ccccc21; C18 diacid = O=C(O)CCCCCCCCCCCCCCCCC(=O)*; C16 diacid = O=C(O)CCCCCCCCCCCCCCC(=O)*; γGlu = O=C(O)[C@H](CCC(=O)[*:2])N[*:1]; β3hI = CC[C@H](C)[C@H](N)CC(=O)O; AEEA = NCCOCCOCC(=O)O; Sar = CNCC(=O)O

Tests used:
[1] = test system: classical complement pathway; assay: In vitro haemolysis assay (inhibition of classical complement pathway); assay type: cell-based, human; details: human serum, sensitized sheep red blood cells; Table 3, given as upper bounds; read-out: IC50, inhibition of hemolysis
Method in brief: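 Compound dilutions preincubated 15 min at room temperature with diluted human serum (titrated per batch for 70-90% maximal haemolysis), then antibody-sensitized sheep RBC (10^7/well) added for 30 min at 37 °C in Tris/casein buffer, pH 7.4. Stopped with EDTA; haemolysis read at 405 nm; IC50 by 4PL fit.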

[2] = Solubility test at 10 mg/mL (visual inspection and light scattering); assay type: physicochemical; details: for Solubility, Condition 1: Acetate pH 4; for Solubility, Condition 2: Acetate pH 5; for Solubility, Condition 3: Phosphate pH 6; for Solubility, Condition 4: Phosphate pH 7; for Solubility, Condition 5: Phosphate pH 7.5
[3] = Pharmacokinetic half-life in non-human primates (serum, LC-MS/MS); assay type: in vivo, Cynomolgus monkeys (Macaca fascicularis); details: male, cynomolgus monkey, sc, NHP, single subcutaneous dose 1840 nmol/kg, * = approximate determination
Method: Healthy male Cynomolgus monkeys (Macaca fascicularis) received single subcutaneous administrations of each test substance. Compounds were formulated in 20 mM phosphate adjusted with NaOH to pH 7.5 and mannitol for isotonicity and dosed at 1840 nmol/kg. Blood was collected from a femoral vein from each animal at the following times: Pre-dose, 1, 2, 4, 8, 24, 48, 72, 96 and 120 h (10 sampling times). Blood was collected into serum separation tubes and allowed to clot at room temperature. The tubes were centrifuged and resulting serum was aliquoted and snap-frozen over dry-ice and stored at nominally −80° C. until analysis. All NHP studies were performed in accordance with animal welfare laws and regulations, including approval of the study by a local ethical review process.
In order to assess pharmacokinetic half-life (t ½), serum samples isolated from non-human primates at specific time points after dosing were analysed for total drug compound after sample preparation by solid phase extraction (SPE) and liquid chromatography mass spectrometry (LC-MS/MS) using analogue internal standard. Single measurement of serum concentrations were used for calculation of the pharmacokinetic parameters using the non-compartmental approach in Phoenix WinNonlin 6.3. Plasma terminal elimination half-life (t½) was determined as In(2)/λz where λz is the magnitude of the slope of the log linear regression of the log concentration versus time profile during the terminal phase.

[4] = molecular target: T1, Human C3 (Complement tech cat #A113c) (human, UniProt P01024 23-1663); assay: cell-based or functional assay
T1 sequence (P01024 23-1663 limits assumed): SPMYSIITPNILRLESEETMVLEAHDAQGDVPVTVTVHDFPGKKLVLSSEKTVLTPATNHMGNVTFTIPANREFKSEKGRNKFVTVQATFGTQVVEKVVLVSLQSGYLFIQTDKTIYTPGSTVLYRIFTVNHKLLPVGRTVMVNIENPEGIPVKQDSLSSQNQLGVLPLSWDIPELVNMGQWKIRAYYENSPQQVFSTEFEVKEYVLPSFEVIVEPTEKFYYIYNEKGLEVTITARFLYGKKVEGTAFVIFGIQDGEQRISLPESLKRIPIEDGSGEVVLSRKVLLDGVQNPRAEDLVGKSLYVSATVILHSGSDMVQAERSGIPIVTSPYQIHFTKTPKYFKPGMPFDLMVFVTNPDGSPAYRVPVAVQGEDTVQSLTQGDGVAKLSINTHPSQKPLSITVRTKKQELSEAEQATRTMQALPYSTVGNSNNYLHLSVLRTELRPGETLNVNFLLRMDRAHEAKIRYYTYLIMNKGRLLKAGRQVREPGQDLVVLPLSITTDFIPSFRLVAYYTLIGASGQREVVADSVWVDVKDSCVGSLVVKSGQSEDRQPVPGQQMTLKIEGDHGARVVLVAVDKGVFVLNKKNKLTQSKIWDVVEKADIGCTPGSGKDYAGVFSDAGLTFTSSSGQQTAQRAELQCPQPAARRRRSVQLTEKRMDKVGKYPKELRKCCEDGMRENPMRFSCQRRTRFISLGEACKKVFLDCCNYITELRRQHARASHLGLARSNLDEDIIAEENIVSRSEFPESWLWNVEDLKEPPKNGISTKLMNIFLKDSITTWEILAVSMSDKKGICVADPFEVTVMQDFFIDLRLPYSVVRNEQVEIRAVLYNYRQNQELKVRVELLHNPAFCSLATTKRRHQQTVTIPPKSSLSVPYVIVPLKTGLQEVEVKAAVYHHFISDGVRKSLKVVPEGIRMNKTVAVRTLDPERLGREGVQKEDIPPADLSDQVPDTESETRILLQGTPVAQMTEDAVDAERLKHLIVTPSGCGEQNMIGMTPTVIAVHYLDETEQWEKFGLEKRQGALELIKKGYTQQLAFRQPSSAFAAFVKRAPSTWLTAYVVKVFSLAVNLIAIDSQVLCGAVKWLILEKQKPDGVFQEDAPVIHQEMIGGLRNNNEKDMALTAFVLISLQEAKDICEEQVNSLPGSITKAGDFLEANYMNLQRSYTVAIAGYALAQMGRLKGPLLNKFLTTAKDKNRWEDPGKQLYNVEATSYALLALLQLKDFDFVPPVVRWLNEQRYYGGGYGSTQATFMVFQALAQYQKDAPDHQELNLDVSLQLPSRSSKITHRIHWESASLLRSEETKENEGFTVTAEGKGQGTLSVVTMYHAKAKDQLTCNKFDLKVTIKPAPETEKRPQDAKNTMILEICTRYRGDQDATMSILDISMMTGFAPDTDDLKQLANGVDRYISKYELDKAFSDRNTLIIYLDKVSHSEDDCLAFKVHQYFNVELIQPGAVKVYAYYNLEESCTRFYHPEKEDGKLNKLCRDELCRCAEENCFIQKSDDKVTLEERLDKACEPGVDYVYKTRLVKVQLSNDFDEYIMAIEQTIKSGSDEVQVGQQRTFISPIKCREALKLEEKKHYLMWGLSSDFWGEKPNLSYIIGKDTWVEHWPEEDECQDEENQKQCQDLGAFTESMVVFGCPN

[5] = molecular target: T1, Human C3 (Complement tech cat #A113c); assay: cell-based or functional assay; remark: listed apart in the source
[6] = molecular target: T1, Human C3 (Complement tech cat #A113c); assay: cell-based or functional assay; remark: listed apart in the source
[7] = molecular target: T1, Human C3 (Complement tech cat #A113c); assay: SPR (Biacore T200), human C3 immobilised, peptide injected, 1:1 fit
Method in brief: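 Human C3 amine-coupled on CM5 chips to about 3000 RU. Multi-cycle runs on Biacore T200 at 25° C: peptides at 6-8 rising concentrations, 60-120 s at 30 µL/min in 10 mM Tris pH 7.4, 150 mM NaCl, 0.05% Tween20, dissociation up to 10 min; 3 M MgCl2 regeneration. Kd derived.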

[8] = molecular target: T1, Human C3 (Complement tech cat #A113c); assay: as above; remark: listed apart in the source
Method: Surface plasmon resonance (SPR) was used to characterize peptides with respect to their binding affinity (Kd) for C3. Human C3 (Complement tech cat #A113c) was immobilised on individual flow cells of CM5 sensor chips (GE Healthcare) using standard amine coupling to a density of approximately 3000 resonance units (RU) in a buffer consisting of 10 mM phosphate pH 7.4, 150 mM NaCl, 0.05% Tween20.
For interaction experiments a multi-cycle experiment approach was used and performed using a BiacoreT200™ instrument (GE Healthcare) at 25° C. Peptides were injected in increasing concentration series (6-8 different concentrations) for 60-120 sat a flow rate of 30 µL/min in a buffer consisting of 10 mM Tris buffer at pH 7.4, with 150 mM NaCl and 0.05% Tween20. This was followed by a dissociation period for up to 10 min. The C3 surface was regenerated between runs by a 45 s injection of 3 M MgCl_2.

Molecule	IC50 [1]	Solubility, Condition 1 [2]	Solubility, Condition 2 [2]	Solubility, Condition 3 [2]	Solubility, Condition 4 [2]	Solubility, Condition 5 [2]	half-life [3]	CP hemolysis IC50 [5]	IC50, CP hemolysis [6]	Kd [8]	further results
CC[C@H](C)[C@@H]1NC(=O)[C@@H](NC(=O)[C@H](Cc2ccc(O)cc2)NC(=O)[C@H](C)NC(=O)[C@H](CO)NC(=O)CNC(=O)[C@H](CCC(=O)O)NC(C)=O)CSSC[C@@H](C(=O)N(C)CC(=O)N[C@@H](CCC(=O)O)C(=O)N[C@@H](CCCCN)C(=O)N[C@@H](CCC(=O)N[C@@H](CCCCNC(=O)COCCOCCNC(=O)COCCOCCNC(=O)CC[C@H](NC(=O)CCCCCCCCCCCCCCCCC(=O)O)C(=O)O)C(N)=O)C(=O)O)NC(=O)[C@H](CCCNC(=N)N)NC(=O)[C@H](Cc2c[nH]cn2)NC(=O)[C@H](CCC(=O)O)NC(=O)CNC(=O)[C@H](Cc2c[nH]c3ccccc23)NC(=O)[C@H](CC(=O)O)NC(=O)[C@H](CCC(N)=O)NC(=O)[C@H](Cc2cn(C)c3ccccc23)NC1=O [Compound 111] (Ac-EGSAYCI[Trp(1-Me)]QDWGEHRC[Sar]EK[γGlu]K([AEEA-AEEA-γGlu-C18 diacid])-NH2; disulfide 6-16)	< 100 nM	− (“−” denotes lack of solubility at the given condition, as UV absorbance at 340 nm exceeds 0.1 AU and/or it is visibly turbid or contains particles)	− (“−” denotes lack of solubility at the given condition, as UV absorbance at 340 nm exceeds 0.1 AU and/or it is visibly turbid or contains particles)	+ (“+” denotes solubility at the given condition, as determined by UV absorbance being less than 0.1 AU at 340 nm and the sample being clear when manually inspected)	+ (“+” denotes solubility at the given condition, as determined by UV absorbance being less than 0.1 AU at 340 nm and the sample being clear when manually inspected)	+ (“+” denotes solubility at the given condition, as determined by UV absorbance being less than 0.1 AU at 340 nm and the sample being clear when manually inspected)	~157 h				
CC[C@H](C)[C@@H]1NC(=O)[C@@H](NC(=O)[C@H](Cc2ccc(O)cc2)NC(=O)[C@H](C)NC(=O)[C@H](CO)NC(=O)CNC(=O)[C@H](CCC(=O)O)NC(C)=O)CSSC[C@@H](C(=O)N(C)CC(=O)N[C@@H](CCC(=O)O)C(=O)NCC(=O)N[C@@H](CCCCNC(=O)COCCOCCNC(=O)COCCOCCNC(=O)CC[C@H](NC(=O)CCCCCCCCCCCCCCC(=O)O)C(=O)O)C(N)=O)NC(=O)[C@H](CCCNC(=N)N)NC(=O)[C@H](Cc2c[nH]cn2)NC(=O)[C@H](CCC(=O)O)NC(=O)CNC(=O)[C@H](Cc2c[nH]c3ccccc23)NC(=O)[C@H](CC(=O)O)NC(=O)[C@H](CCC(N)=O)NC(=O)[C@H](Cc2cn(C)c3ccccc23)NC1=O [Compound 104] (Ac-EGSAYCI[Trp(1-Me)]QDWGEHRC[Sar]EGK([AEEA-AEEA-γGlu-C16 diacid])-NH2; disulfide 6-16)	< 100 nM	− (“−” denotes lack of solubility at the given condition, as UV absorbance at 340 nm exceeds 0.1 AU and/or it is visibly turbid or contains particles)	+ (“+” denotes solubility at the given condition, as determined by UV absorbance being less than 0.1 AU at 340 nm and the sample being clear when manually inspected)	+ (“+” denotes solubility at the given condition, as determined by UV absorbance being less than 0.1 AU at 340 nm and the sample being clear when manually inspected)	+ (“+” denotes solubility at the given condition, as determined by UV absorbance being less than 0.1 AU at 340 nm and the sample being clear when manually inspected)	+ (“+” denotes solubility at the given condition, as determined by UV absorbance being less than 0.1 AU at 340 nm and the sample being clear when manually inspected)	~96.3 h				
CC[C@H](C)[C@@H]1NC(=O)[C@@H](NC(=O)[C@H](Cc2ccc(O)cc2)NC(=O)[C@H](C)NC(=O)[C@H](CO)NC(C)=O)CSSC[C@@H](C(=O)N(C)CC(=O)N[C@@H](CCC(=O)O)C(=O)N[C@@H](CCCCNC(=O)CC[C@H](NC(=O)CNC(=O)CC[C@H](NC(=O)CCCCCCCCCCCCCCCCC(=O)O)C(=O)O)C(=O)O)C(N)=O)NC(=O)[C@H](CCCNC(=N)N)NC(=O)[C@H](Cc2c[nH]cn2)NC(=O)[C@H](CCC(=O)O)NC(=O)CNC(=O)[C@H](Cc2c[nH]c3ccccc23)NC(=O)[C@H](CC(=O)O)NC(=O)[C@H](CCC(N)=O)NC(=O)[C@H](Cc2cn(C)c3ccccc23)NC1=O [Compound 106] (Ac-SAYCI[Trp(1-Me)]QDWGEHRC[Sar]EK([γGlu-Gly-γGlu-C18 diacid])-NH2; disulfide 4-14)	< 250 nM						~93.9 h				
Ac-ICIWQDWGEHRCT-NH2 (disulfide 2-12; SMILES CC[C@H](C)[C@H](NC(C)=O)C(=O)N[C@H]1CSSC[C@@H](C(=O)N[C@H](C(N)=O)[C@@H](C)O)NC(=O)[C@H](CCCNC(=N)N)NC(=O)[C@H](Cc2c[nH]cn2)NC(=O)[C@H](CCC(=O)O)NC(=O)CNC(=O)[C@H](Cc2c[nH]c3ccccc23)NC(=O)[C@H](CC(=O)O)NC(=O)[C@H](CCC(N)=O)NC(=O)[C@H](Cc2c[nH]c3ccccc23)NC(=O)[C@H]([C@@H](C)CC)NC1=O) [Compound 2]								94 nM	< 100 nM	16 nM	inhibition of hemolysis IC50 [4]: < 100 nM; Kd [7]: 16 nM
Ac-ICVWQDWGEHRCT-NH2 (disulfide 2-12; SMILES CC[C@H](C)[C@H](NC(C)=O)C(=O)N[C@H]1CSSC[C@@H](C(=O)N[C@H](C(N)=O)[C@@H](C)O)NC(=O)[C@H](CCCNC(=N)N)NC(=O)[C@H](Cc2c[nH]cn2)NC(=O)[C@H](CCC(=O)O)NC(=O)CNC(=O)[C@H](Cc2c[nH]c3ccccc23)NC(=O)[C@H](CC(=O)O)NC(=O)[C@H](CCC(N)=O)NC(=O)[C@H](Cc2c[nH]c3ccccc23)NC(=O)[C@H](C(C)C)NC1=O) [Compound A]								350 nM	350 nM	130 nM	
Ac-IC[β3hI]WQDWGEHRCT-NH2 (disulfide 2-12) [Ac-IC(1)XWQDWGEHRC(1)T-NH2 with Beta-Homo-Isoleucine at position 3]									> 10000 nM		
